System: HCT-116
Assay: Cytotoxicity against HCT116 cells
Assay type: cell-based
Conditions: human; call rule not given here

Cn1c(C(=O)NCC(=O)N[C@H]2CNC(=O)[C@@H](Cc3c[nH]c4ccc(Br)cc34)NC(=O)[C@@H](O)CNC(=O)[C@@H](CC(N)=O)NC2=O)cc(Cl)c1Cl [CYCLOCINAMIDE B]
Activity: Not Active

Reference: ChEMBL document CHEMBL1147127, “Halogenated cyclic peptides isolated from the sponge Corticium sp” (J Nat Prod, 2007)
